Source: US20220119354A1, “DIAMINO-SUBSTITUTED PYRIDINES AND PYRIMIDINES AS HERBICIDES” (FMC Corporation, priority 2019, published 2022)

How the values were obtained:
Type in all cases: in vivo
[1] = tested on: galium (catchweed bedstraw, Galium aparine); test: Test A postemergence, galium; details: 0 to 100 scale
Description: (§1) Seeds of plant species selected from barnyardgrass (Echinochloa crus-galli), kochia (Kochia scoparia), ragweed (common ragweed, Ambrosia elatior), ryegrass, Italian (Lolium multiflorum), foxtail, giant (Setaria faberii), foxtail, green (Setaria viridis), and pigweed (Amaranthus retroflexus) were planted into a blend of loam soil and sand and treated preemergence with a directed soil spray using test chemicals formulated in a non-phytotoxic solvent mixture which included a surfactant.
(§2) At the same time, plants selected from these weed species and also wheat (Triticum aestivum), corn (Zea mays), blackgrass (Alopecurus myosuroides), and galium (catchweed bedstraw, Galium aparine) were planted in pots containing the same blend of loam soil and sand and treated with postemergence applications of test chemicals formulated in the same manner. Plants ranged in height from 2 to 10 cm and were in the one- to two-leaf stage for the postemergence treatment. Treated plants and untreated controls were maintained in a greenhouse for approximately 10 d, after which time all treated plants were compared to untreated controls and visually evaluated for injury. Plant response ratings, summarized in Table A, are based on a 0 to 100 scale where 0 is no effect and 100 is complete control. A dash (-) response means no test result.

[2] = tested on: pigweed (Amaranthus retroflexus); test: Test A preemergence, pigweed; details: 0 to 100 scale; for Pigweed plant response rating: 0 is no effect, 100 is complete control
Description: as §1, §2

[3] = tested on: ragweed (common ragweed, Ambrosia elatior); test: Test A postemergence, ragweed; details: 0 to 100 scale
Description: as §1, §2

[4] = tested on: foxtail, giant (Setaria faberii); test: Test A postemergence, giant foxtail; details: 0 to 100 scale
Description: as §1, §2

[5] = tested on: foxtail, giant (Setaria faberii); test: Test A preemergence, giant foxtail; details: 0 to 100 scale; for Foxtail, Giant plant response rating: 0 is no effect, 100 is complete control
Description: as §1, §2

[6] = tested on: ryegrass, Italian (Lolium multiflorum); test: Test A postemergence, Italian ryegrass; details: 0 to 100 scale
Description: as §1, §2

[7] = tested on: ryegrass, Italian (Lolium multiflorum); test: Test A preemergence, Italian ryegrass; details: 0 to 100 scale; for Ryegrass, Italian plant response rating: 0 is no effect, 100 is complete control
Description: as §1, §2

[8] = tested on: ducksalad (Heteranthera limosa); test: Test B flooded paddy test, ducksalad; details: Flood, 250 g ai/ha, applied to paddy water, 2-leaf stage, visual evaluation after 13 to 15 d
Method: (§3) Plant species in the flooded paddy test selected from rice (Oryza sativa), sedge, umbrella (small-flower umbrella sedge, Cyperus difformis), ducksalad (Heteranthera limosa), and barnyardgrass (Echinochloa crus-galli) were grown to the 2-leaf stage for testing. At the time of treatment, test pots were flooded to 3 cm above the soil surface, treated by application of test compounds directly to the paddy water, and then maintained at that water depth for the duration of the test. Treated plants and controls were maintained in a greenhouse for 13 to 15 d, after which time all species were compared to controls and visually evaluated. Plant response ratings, summarized in Table B, are based on a scale of 0 to 100 where 0 is no effect and 100 is complete control. A dash (-) response means no test result.

[9] = tested on: barnyardgrass (Echinochloa crus-galli); test: Test A preemergence, barnyardgrass; details: 0 to 100 scale; for Barnyardgrass plant response rating: 0 is no effect, 100 is complete control
Description: as §1, §2

[10] = tested on: barnyardgrass (Echinochloa crus-galli); test: Test B flooded paddy test, barnyardgrass; details: Flood, 250 g ai/ha, applied to paddy water, 2-leaf stage, visual evaluation after 13 to 15 d
Method: as §3

rice (Oryza sativa) = test: Test B flooded paddy test, rice; details: Flood, 250 g ai/ha, applied to paddy water, 2-leaf stage, visual evaluation after 13 to 15 d
Method: as §3

corn (Zea mays) = test: Test A postemergence, corn; details: 0 to 100 scale
Description: as §1, §2

kochia (Kochia scoparia) [11] = test: Test A postemergence, kochia; details: 0 to 100 scale
Description: as §1, §2

[12] = tested on: barnyardgrass (Echinochloa crus-galli); test: Test A postemergence, barnyardgrass; details: 0 to 100 scale
Description: as §1, §2

[13] = tested on: pigweed (Amaranthus retroflexus); test: Test A postemergence, pigweed; details: 0 to 100 scale
Description: as §1, §2

kochia (Kochia scoparia) [14] = test: Test A preemergence, kochia; details: 0 to 100 scale; for Kochia plant response rating: 0 is no effect, 100 is complete control
Description: as §1, §2

[15] = tested on: sedge, umbrella (small-flower umbrella sedge, Cyperus difformis); test: Test B flooded paddy test, umbrella sedge; details: Flood, 250 g ai/ha, applied to paddy water, 2-leaf stage, visual evaluation after 13 to 15 d
Method: as §3

[16] = tested on: blackgrass (Alopecurus myosuroides); test: Test A postemergence, blackgrass; details: 0 to 100 scale
Description: as §1, §2

[17] = tested on: wheat (Triticum aestivum); test: Test A postemergence, wheat; details: 0 to 100 scale
Description: as §1, §2

[18] = tested on: ragweed (common ragweed, Ambrosia elatior); test: Test A preemergence, ragweed; details: 0 to 100 scale, 0 is no effect, 100 is complete control
Description: as §1, §2

[19] = 125 g ai/ha, 0 no effect, 100 complete control
[20] = 500 g ai/ha, 0 no effect, 100 complete control

Q: Which “Plant response rating, Galium” value ([1]; 125 g ai/ha) does the source give for `C[C@H](Nc1ncc(C(F)(F)F)c(N)n1)C1Cc2ccccc2C1` [Compound 12] here?
A: Its value is 0.

Q: What about the “Plant response rating, Galium” value ([1]; 500 g ai/ha) of the same compound?
A: The value was 0.

Q: What about the “Plant response rating, Pigweed” value ([2]; 125 g ai/ha) of the same compound?
A: The value was 0.

Q: What about the “Plant response rating, Pigweed” value ([2]; 500 g ai/ha) of the same compound?
A: Its value is 50.

Q: And the “Plant response rating, Ragweed” value ([3]; 125 g ai/ha)?
A: Its value is 0.

Q: What about the “Plant response rating, Ragweed” value ([3]; 500 g ai/ha) of the same compound?
A: The value was 0.

Q: And the “Plant response rating, Foxtail, Giant” value ([4]; 125 g ai/ha)?
A: Its value is 0.

Q: And the “Plant response rating, Foxtail, Giant” value ([4]; 500 g ai/ha)?
A: The value was 0.

Q: What about the “Plant response rating, Foxtail, Giant” value ([5]; 125 g ai/ha) of the same compound?
A: The value was 0.

Q: And the “Plant response rating, Foxtail, Giant” value ([5]; 500 g ai/ha)?
A: The value was 0.

Q: And the “Plant response rating, Ryegrass, Italian” value ([6]; 125 g ai/ha)?
A: The value was 0.

Q: And the “Plant response rating, Ryegrass, Italian” value ([6]; 500 g ai/ha)?
A: Its value is 0.

Q: What about the “Plant response rating, Ryegrass, Italian” value ([7]; 125 g ai/ha) of the same compound?
A: The value was 0.

Q: And the “Plant response rating, Ryegrass, Italian” value ([7]; 500 g ai/ha)?
A: Its value is 0.

Q: What about the “Plant response rating, Ducksalad (0 to 100 scale, 0 is no effect, 100 is complete control)” value [8] of the same compound?
A: Its value is 0.

Q: And the “Plant response rating, Barnyardgrass” value ([9]; 125 g ai/ha)?
A: The value was 0.

Q: And the “Plant response rating, Barnyardgrass” value ([9]; 500 g ai/ha)?
A: Its value is 0.

Q: And the “Plant response rating, Barnyardgrass (0 to 100 scale, 0 is no effect, 100 is complete control)” value [10]?
A: The value was 0.

Q: And the “Plant response rating, Rice (0 to 100 scale, 0 is no effect, 100 is complete control)” value (rice (Oryza sativa))?
A: The value was 0.

Q: What about the “Plant response rating, Corn” value (corn (Zea mays); 125 g ai/ha) of the same compound?
A: Its value is 0.

Q: What about the “Plant response rating, Corn” value (corn (Zea mays); 500 g ai/ha) of the same compound?
A: Its value is 0.

Q: And the “Plant response rating, Kochia” value (kochia (Kochia scoparia) [11]; 125 g ai/ha)?
A: Its value is 0.

Q: What about the “Plant response rating, Kochia” value (kochia (Kochia scoparia) [11]; 500 g ai/ha) of the same compound?
A: Its value is 30.

Q: And the “Plant response rating, Barnyardgrass” value ([12]; 125 g ai/ha)?
A: The value was 0.

Q: What about the “Plant response rating, Barnyardgrass” value ([12]; 500 g ai/ha) of the same compound?
A: The value was 0.

Q: What about the “Plant response rating, Pigweed” value ([13]; 125 g ai/ha) of the same compound?
A: The value was 30.

Q: What about the “Plant response rating, Pigweed” value ([13]; 500 g ai/ha) of the same compound?
A: Its value is 40.

Q: And the “Plant response rating, Kochia” value (kochia (Kochia scoparia) [14]; 125 g ai/ha)?
A: Its value is 0.

Q: What about the “Plant response rating, Kochia” value (kochia (Kochia scoparia) [14]; 500 g ai/ha) of the same compound?
A: The value was 0.

Q: What about the “Plant response rating, Sedge, Umbrella (0 to 100 scale, 0 is no effect, 100 is complete control)” value [15] of the same compound?
A: The value was 0.

Q: And the “Plant response rating, Blackgrass” value ([16]; 125 g ai/ha)?
A: Its value is 0.

Q: What about the “Plant response rating, Blackgrass” value ([16]; 500 g ai/ha) of the same compound?
A: Its value is 0.

Q: What about the “Plant response rating, Wheat” value ([17]; 125 g ai/ha) of the same compound?
A: The value was 0.

Q: What about the “Plant response rating, Wheat” value ([17]; 500 g ai/ha) of the same compound?
A: Its value is 0.

Q: With `Cc1ccc2c([C@H](Nc3ncc(C(F)(F)F)c(N)n3)C3CC3)coc2c1` [Compound 90] as the compound, how does the “Plant response rating, Galium” value [1, 19] read?
A: The value was 40.

Q: What about the “Plant response rating, Galium” value [1, 20] of the same compound?
A: Its value is 70.

Q: What about the “Pigweed plant response rating” value ([2]; 125 g ai/ha) of the same compound?
A: The value was 70.

Q: What about the “Pigweed plant response rating” value ([2]; 500 g ai/ha) of the same compound?
A: The value was 100.

Q: What about the “Plant response rating, Ragweed” value [3, 19] of the same compound?
A: The value was 30.

Q: And the “Plant response rating, Ragweed” value [3, 20]?
A: Its value is 70.

Q: What about the “Plant response rating, Foxtail, Giant” value [4, 19] of the same compound?
A: Its value is 0.

Q: And the “Plant response rating, Foxtail, Giant” value [4, 20]?
A: Its value is 50.

Q: And the “Foxtail, Giant plant response rating” value ([5]; 125 g ai/ha)?
A: Its value is 70.

Q: And the “Foxtail, Giant plant response rating” value ([5]; 500 g ai/ha)?
A: The value was 100.

Q: And the “Plant response rating, Ryegrass, Italian” value [6, 19]?
A: The value was 30.

Q: And the “Plant response rating, Ryegrass, Italian” value [6, 20]?
A: The value was 40.

Q: And the “Ryegrass, Italian plant response rating” value ([7]; 125 g ai/ha)?
A: Its value is 30.

Q: And the “Ryegrass, Italian plant response rating” value ([7]; 500 g ai/ha)?
A: The value was 50.

Q: And the “Plant response rating, Ducksalad (0 to 100 scale, 0 is no effect, 100 is complete control)” value [8]?
A: The value was 25.

Q: What about the “Barnyardgrass plant response rating” value ([9]; 125 g ai/ha) of the same compound?
A: Its value is 0.

Q: What about the “Barnyardgrass plant response rating” value ([9]; 500 g ai/ha) of the same compound?
A: Its value is 80.

Q: And the “Plant response rating, Barnyardgrass (0 to 100 scale, 0 is no effect, 100 is complete control)” value [10]?
A: The value was 40.

Q: And the “Plant response rating, Rice (0 to 100 scale, 0 is no effect, 100 is complete control)” value (rice (Oryza sativa))?
A: The value was 0.

Q: And the “Plant response rating, Corn” value (corn (Zea mays); [19])?
A: The value was 0.

Q: And the “Plant response rating, Corn” value (corn (Zea mays); [20])?
A: The value was 0.

Q: What about the “Plant response rating, Kochia” value (kochia (Kochia scoparia) [11]; [19]) of the same compound?
A: Its value is 20.

Q: What about the “Plant response rating, Kochia” value (kochia (Kochia scoparia) [11]; [20]) of the same compound?
A: Its value is 90.

Q: And the “Plant response rating, Pigweed” value [13, 19]?
A: Its value is 60.

Q: What about the “Plant response rating, Pigweed” value [13, 20] of the same compound?
A: Its value is 100.

Q: And the “Kochia plant response rating” value (kochia (Kochia scoparia) [14]; 125 g ai/ha)?
A: The value was 0.

Q: What about the “Kochia plant response rating” value (kochia (Kochia scoparia) [14]; 500 g ai/ha) of the same compound?
A: Its value is 90.

Q: And the “Plant response rating, Sedge, Umbrella (0 to 100 scale, 0 is no effect, 100 is complete control)” value [15]?
A: The value was 20.

Q: What about the “Ragweed plant response rating” value ([18]; 125 g ai/ha) of the same compound?
A: Its value is 50.

Q: What about the “Ragweed plant response rating” value ([18]; 500 g ai/ha) of the same compound?
A: The value was 100.

Q: And the “Plant response rating, Blackgrass” value [16, 19]?
A: Its value is 0.

Q: What about the “Plant response rating, Blackgrass” value [16, 20] of the same compound?
A: Its value is 60.

Q: And the “Plant response rating, Wheat” value [17, 19]?
A: The value was 0.

Q: And the “Plant response rating, Wheat” value [17, 20]?
A: The value was 30.
